Data as given in patent publication US20130324543A1, “REVERSAL OF HIGH BREAST CANCER RISK IN MAMMALS EXPOSED TO ESTROGENIC CHEMICALS IN UTERO BY ADULT EXPOSURE TO HDAC AND DNMT INHIBITORS” (Georgetown University, priority 2012, published 2013).

Assays:
mammary tumors [1] = experiment: MPA/DMBA-induced mammary tumorigenesis in mice exposed in utero to EE2 or GEN, with or without adult HDAC+DNMT inhibitors; conditions: mouse, in vivo
Procedure: Time pregnant C57BL/6 female mice were obtained from Harlan (Harlan-Teclad, USA) on gestation day 6, and were randomly assigned into three groups on the following day (gestation day 7). The basic diet formulation in the study was a semi-purified AIN93G (the American Institute of Nutrition) modified to replace soy oil for corn oil; all the diets of the three treatment groups were also purchased from Harlan. The diets were isocaloric, as ethinyl estradiol (EE2) or genistein (GEN) were added in the diet at the expense of comstarch. Additions to the basic diet were as follows: 1) EE2 0.1 ppm, and 2) GEN 500 ppm. EE2 was purchased from Sigma Chemicals (St. Louis, Mo., USA), and GEN was a gift from Dr. William Helferich (University of Illinois, Urbana, Ill., USA).
The pregnant dams were fed these diets until the day of the delivery of their pups (Post Natal Day 0, PND 0). Starting on PND 0, all mice were fed the control diet until the end of the study. Female mice born from the dams fed with the different above mentioned diets were used in the subsequent studies. For study outline, see FIG. 12. Animals were housed in a temperature- and humidity-controlled room under a 12-hour light-dark cycle. All animal procedures were approved by the Georgetown University Animal Care and Use Committee, and the experiments were performed following the National Institutes of Health guidelines for the proper and humane use of animals in biomedical research.
Mammary tumors were induced by administration of a subcutaneous injection of Medroxyprogesterone Acetate (MPA) to mice at 6 weeks of age, followed by administration of 1 mg 7,12-dimethylbenz(a)anthracene (DMBA) (Sigma, St. Louis, Mo.) weekly for four weeks (weeks 7, 8, 9, 10) (23). The carcinogen was dissolved in corn oil and administered by oral gavage in a volume of ca. 0.1 ml.
One week after the last dose of DMBA was administered, some of the mice were started on hydralazine (5 mg/kg/day) and valproic acid treatments (1.16 g/kg/day) treatments.
The two compounds were given in a drinking water, which was prepared fresh twice a week. The doses were chosen based on the literature (24-26). The number of animals in each group is as follows: Control n=18, Control given HDAC+DNMT inhibitors n=9, EE2 n=9, EE2 given HDAC+DNMT inhibitors n=6, GEN n=14, and GEN given HDAC+DNMT inhibitors n=8.
Mice were examined for mammary tumors by palpation once per week. Tumor growth was monitored for 16 weeks after the last dose of DMBA administration. During the follow-up, animals in which tumor burden approximated 10% of total body weight were euthanized, as required by the ethical guidelines of our institution. All surviving animals were sacrificed at that point for sample collection. The end-points for tumor data analysis were (i) latency to tumor appearance, (ii) the number of animals with tumors (tumor incidence), and (iii) the cumulative tumor area (tumor burden). The latter was achieved by adding the total tumor area per group each week and dividing it with the number of mice in the group.
Mammary tumor latency was compared with the final tumor burden in utero EE2 and GEN exposed mice to control mice, and in utero EE2 and GEN exposed mice to control mice exposed to HDAC+DNMT inhibitors separately; analysis was done using one-way ANOVA. Cumulative tumor burden during 16 weeks of tumor monitoring in the three groups, separately in those mice not given HDAC+DNMT inhibitors and those treated with the epigenetic drugs, was analysed using repeated measures one-way ANOVA. Log rank analysis was performed to compare mammary tumor incidence in the control and in utero EE2 and GEN exposed mice, again separately in those mice not given HDAC+DNMT inhibitors and those treated with the epigenetic drugs. Data for changes in DNMT1 expression among the groups in the mammary glands and tumors were assessed using two-way ANOVA, followed by Fisher LSD test

mammary gland = experiment: Number of terminal end buds (TEBs) in mammary whole mounts of F1-F3 rat offspring; type: in vivo, Sprague-Dawley rats; conditions: mean±s.e.m.
Procedure: Whole mounts (n=5-6 per group and age) were examined under the microscope and evaluated as described before (28) to assess the number of terminal end buds (TEBs). Results were analyzed by t-test (or Mann-Whitney Rank Sum test) or one-ANOVA (when comparing outcross groups in F2 generation). Where appropriate, between groups comparisons after ANOVA were done by Holm-Sidak multi-comparison procedure.

Dnmt1 = experiment: Dnmt mRNA expression (qRT-PCR) in mammary glands of F1-F3 rat offspring; type: in vivo, Sprague-Dawley rats; conditions: for levels of Dnmt1 mRNA in mammary gland: PND50
Excerpt: Total mammary RNA (n=3-6/group) was used as a template for random primed cDNA synthesis (TaqMan MultiScribe Reverse Transcriptase and RT-PCR Reagents, AppliedBiosystems, Roche, N.J., USA). cDNA samples were then used as templates for quantitative RT PCR analysis with previously described specific primers for the target gene, rat Dnmt1 (124) using QuantiTect SYBR green PCR kit (Qiagen Inc., Valencia, Calif.). Each sample was normalized to the reference gene 18S rRNA (27). Two hundred ng of total RNA per sample (n=3-6) was used as a template for random primed cDNA synthesis with a recombinant Moloney murine leukemia virus reverse transcriptase (TaqMan MultiScribe Reverse Transcriptase and RT-PCR Reagents, AppliedBiosystems, Roche, N.J., USA), according to manufacturer's instructions. An RT enzyme-minus control reaction was also included. The cDNA samples were then used as templates for quantitative real time PCR analysis with previously described specific primers for the target gene, rat Dnmt1(29) using QuantiTect SYBR green PCR kit (Qiagen Inc., Valencia, Calif.) and an ABI Prism 7900 Sequence Detection System. Each sample was run in triplicate, and the qPCR run was repeated twice. Absolute gene expression levels were determined using Applied Biosystems' SDS2.3 software and the standard curve method. Concentration of each sample was normalized to the reference gene 18S rRNA (30), and averages of the three runs are shown. Differences in Dnmt1 mRNA expression levels were tested by two-way ANOVA (after log-transformation), followed by Holm-Sidak multicomparison procedure.

[2] = Litter size and pup weight in F1-F3 rat generations; type: in vivo, Sprague-Dawley rats; conditions: diet of the F0 dams; any of the three generations
Procedure: Pregnant dams were weighed once a week to monitor changes in weight gain. The birth weight of pups and number of pups per litter were recorded. To avoid litter-effect, pups were crossfostered 1-2 days after dams gave birth. Pups from 2-4 dams were pooled and housed in a litter of 8-10 pups per nursing dam (which had the same dietary/hormonal exposure during pregnancy as the pups' mothers). All pups were weaned on postnatal day 21.

mammary tumors [3] = experiment: Acquired tamoxifen (TAM) resistance of mammary tumors in in utero exposed rats; type: in vivo; conditions: 14-week follow-up, 7% in the control group
[4] = Con x EE2 outcross (F2 generation)
[5] = EE2 x Con outcross (F2 generation)
[6] = maternal EE2 diet 0.1 ppm, F1 generation
[7] = maternal EE2 diet, F2 generation
[8] = maternal EE2 diet, F3 generation

Structure (SMILES): C#C[C@]1(O)CC[C@H]2[C@@H]3CCc4cc(O)ccc4[C@H]3CC[C@@]21C [EE2, ethinyl estradiol]
- Final tumor burden per mouse (mammary tumors [1]): significantly higher
- Mammary tumor incidence (mammary tumors [1]): significantly higher
- mammary tumorigenesis (mammary tumors [1]): increased mammary tumorigenesis
- Number of TEBs PND 21 (mammary gland; [4]): 19.4 ± 1.5
- Number of TEBs PND 50 (mammary gland; [4]): 11.0 ± 1.2
- Number of TEBs PND 21 (mammary gland; [5]): 32.7 ± 3.6
- Number of TEBs PND 50 (mammary gland; [5]): 22.8 ± 1.6
- Number of TEBs PND 21 (mammary gland; [6]): 25.3 ± 1.3
- Number of TEBs PND 50 (mammary gland; [6]): 32.5 ± 2.3
- Number of TEBs PND 21 (mammary gland; [7]): 30.8 ± 1.9
- Number of TEBs PND 50 (mammary gland; [7]): 22.2 ± 3.8
- Number of TEBs PND 21 (mammary gland; [8]): 33.0 ± 2.1
- Number of TEBs PND 50 (mammary gland; [8]): 28.7 ± 3.4
- levels of Dnmt1 mRNA in mammary gland (Dnmt1; F1 generation): increased
- levels of Dnmt1 mRNA in mammary gland (Dnmt1; F2 and F3 generation offspring): this increase persisted
- DNMT3a or 3b expression in the mammary glands (Dnmt1; in utero exposed rats, not shown): Neither DNMT3a or 3b were altered
- litter size or pups weight [2]: did not affect
- acquired resistance to TAM (mammary tumors [3]): 50%
